The text below walks through data of patent publication US10633419B2, “Immunomodulators” (BRISTOL-MYERS SQUIBB COMPANY, priority 2014, dated 2020).

Starred links: 1 amine or outer side, 2 acyl side, 3 side chain; linkers in the order of their positions; H or OH if unused. Positions of bridges follow the written chain, without caps; N, C: chain ends. Non-standard residues stand in square brackets, D forms with d. Residues, ends and D or L forms follow the SMILES beside them. Groups on a side chain read outwards from the residue. *: point of attachment. X22 = CCCCCCCCCCCCCC(=O)N[C@H](CCC(=O)NCCCC[C@H](NC(=O)CCC(=O)NCCCOCCOCCOCCCN*)C(N)=O)C(=O)O; X7 = CCCCCCCCCCCCCCCCNC(=O)[C@H](CC(=O)O)NC(=O)CCC(=O)NCCCOCCOCCOCCCN*; Trp(1-CH2COOH) = N[C@@H](Cc1cn(CC(=O)O)c2ccccc12)C(=O)O; X27 = CCCCCCCCCCCCCCCCNC(=O)CCC(=O)NCCCOCCOCCOCCCN*; C16 diacid = O=C(O)CCCCCCCCCCCCCCC(=O)*; γGlu = O=C(O)[C@H](CCC(=O)[*:2])N[*:1]; Hyp = O=C(O)[C@@H]1C[C@@H](O)CN1; NHhexadecyl = CCCCCCCCCCCCCCCCN*; Myristoyl = CCCCCCCCCCCCCC(=O)*; NMeNle = CCCC[C@H](NC)C(=O)O; NMeA = CN[C@@H](C)C(=O)O; Aun = NCCCCCCCCCCC(=O)O; Dab = NCC[C@H](N)C(=O)O; Dap = NC[C@H](N)C(=O)O

What is called IC50 is the midpoint of a concentration-inhibition curve.

T1 sequence (Q9NZQ7 with tags, fused parts or gaps): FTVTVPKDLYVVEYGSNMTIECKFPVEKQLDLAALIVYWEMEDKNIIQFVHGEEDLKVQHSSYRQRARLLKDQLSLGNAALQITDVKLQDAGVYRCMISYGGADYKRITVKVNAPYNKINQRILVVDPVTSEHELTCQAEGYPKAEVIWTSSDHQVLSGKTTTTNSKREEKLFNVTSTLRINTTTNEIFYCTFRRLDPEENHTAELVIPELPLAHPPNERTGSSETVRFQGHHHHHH

This test addresses T1, PD-L1 (Homo sapiens, UniProt Q9NZQ7).
T1 construct: hPDL1(19-239)-TVMV-His; made in house; host or cells: HEK293T
Description: PD-1/PD-L1 Homogenous Time-Resolved Fluorescence (HTRF) binding assay (PD-1-Ig/PD-L1-His). Particulars: inhibition of PD-1-Ig binding to PD-L1-TVMV-His; value given as range class; read-out: HTRF IC50. The procedure, abridged: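 HTRF competition in dPBS with 0.1% BSA and 0.05% Tween-20: 20 nM PD-1-Ig added after 15 min compound pre-incubation with 10 nM PD-L1-His, then another 15 min. Signal (665/620 nm) after 30 min with APC anti-His (20 nM) and Eu anti-Ig (1 nM).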
(TR-FRET usually uses a lanthanide donor and a delayed reading to cut background.)
`CCCCCCCCCCCCCCCCNC(=O)[C@H](CC(=O)O)NC(=O)CCCCCCCCCCNC(=O)[C@@H]1CSCC(=O)N[C@@H](Cc2ccc(O)cc2)C(=O)N(C)[C@@H](C)C(=O)N[C@@H](CC(N)=O)C(=O)N2CCC[C@H]2C(=O)N[C@@H](Cc2cnc[nH]2)C(=O)N[C@@H](CC(C)C)C(=O)N2C[C@H](O)C[C@H]2C(=O)N[C@@H](Cc2c[nH]c3ccccc23)C(=O)N[C@@H](CO)C(=O)N[C@@H](Cc2c[nH]c3ccccc23)C(=O)N(C)[C@@H](CCCC)C(=O)N(C)[C@@H](CCCC)C(=O)N[C@@H](CCCNC(=N)N)C(=O)N1` [Example 11119]: the IC50 was in the range of 100 to 1600 nM. As for `CCCCCCCCCCCCCCCCNC(=O)[C@H](CC(=O)O)NC(=O)CNC(=O)CNC(=O)CNC(=O)[C@@H]1CSCC(=O)N[C@@H](Cc2ccc(O)cc2)C(=O)N(C)[C@@H](C)C(=O)N[C@@H](CC(=O)O)C(=O)N2CCC[C@H]2C(=O)N[C@@H](Cc2cnc[nH]2)C(=O)N[C@@H](CC(C)C)C(=O)N2C[C@H](O)C[C@H]2C(=O)N[C@@H](Cc2c[nH]c3ccccc23)C(=O)N[C@@H](CO)C(=O)N[C@@H](Cc2c[nH]c3ccccc23)C(=O)N(C)[C@@H](CCCC)C(=O)N(C)[C@@H](CCCC)C(=O)N[C@@H](CCCNC(=N)N)C(=O)N1` [Example 11120] ({CH2CO}-Y[NMeA]DPHL[Hyp]WSW[NMeNle][NMeNle]RCGGGD-NHhexadecyl; thioether N-14), the figure is 100 to 1600 nM; as for `CCCCCCCCCCCCCC(=O)N[C@@H](CCC(=O)NCCCC[C@H](NC(=O)[C@H](CC(=O)O)NC(=O)CNC(=O)CNC(=O)[C@@H]1CSCC(=O)N[C@@H](Cc2ccc(O)cc2)C(=O)N(C)[C@@H](C)C(=O)N[C@@H](CC(=O)O)C(=O)N2CCC[C@H]2C(=O)N[C@@H](Cc2cnc[nH]2)C(=O)N[C@@H](CC(C)C)C(=O)N2C[C@H](O)C[C@H]2C(=O)N[C@@H](Cc2c[nH]c3ccccc23)C(=O)N[C@@H](CO)C(=O)N[C@@H](Cc2c[nH]c3ccccc23)C(=O)N(C)[C@@H](CCCC)C(=O)N(C)[C@@H](CCCC)C(=O)N[C@@H](CCCNC(=N)N)C(=O)N1)C(N)=O)C(=O)O` [Example 11123] ({CH2CO}-Y[NMeA]DPHL[Hyp]WSW[NMeNle][NMeNle]RCGGDK([γGlu-Myristoyl])-NH2; thioether N-14), 10 to 99 nM. `CCCCCCCCCCCCCCCCNC(=O)CCC(=O)NCCCOCCOCCOCCCNC(=O)CNC(=O)[C@@H]1CSCC(=O)N[C@@H](Cc2ccc(O)cc2)C(=O)N(C)[C@@H](C)C(=O)N[C@@H](CC(=O)O)C(=O)N2CCC[C@H]2C(=O)N[C@@H](Cc2cnc[nH]2)C(=O)N[C@@H](CC(C)C)C(=O)N2C[C@H](O)C[C@H]2C(=O)N[C@@H](Cc2c[nH]c3ccccc23)C(=O)N[C@@H](CO)C(=O)N[C@@H](Cc2c[nH]c3ccccc23)C(=O)N(C)[C@@H](CCCC)C(=O)N(C)[C@@H](CCCC)C(=O)N[C@@H](CCCNC(=N)N)C(=O)N1` [Example 11124] ({CH2CO}-Y[NMeA]DPHL[Hyp]WSW[NMeNle][NMeNle]RCG-X27; thioether N-14): the half-inhibitory concentration (IC50) is 100 to 1600 nM.

Turning to `CCCCCCCCCCCCCC(=O)N[C@H](CCC(=O)NCCCC[C@H](NC(=O)CCC(=O)NCCCOCCOCCOCCCNC(=O)CNC(=O)[C@@H]1CSCC(=O)N[C@@H](Cc2ccc(O)cc2)C(=O)N(C)[C@@H](C)C(=O)N[C@@H](CC(=O)O)C(=O)N2CCC[C@H]2C(=O)N[C@@H](Cc2cnc[nH]2)C(=O)N[C@@H](CC(C)C)C(=O)N2C[C@H](O)C[C@H]2C(=O)N[C@@H](Cc2c[nH]c3ccccc23)C(=O)N[C@@H](CO)C(=O)N[C@@H](Cc2c[nH]c3ccccc23)C(=O)N(C)[C@@H](CCCC)C(=O)N(C)[C@@H](CCCC)C(=O)N[C@@H](CCCNC(=N)N)C(=O)N1)C(N)=O)C(=O)O` [Example 11125] ({CH2CO}-Y[NMeA]DPHL[Hyp]WSW[NMeNle][NMeNle]RCG-X22; thioether N-14), the IC50 lay within 10 to 99 nM. As for `CCCC[C@H]1C(=O)N(C)[C@@H](CCCC)C(=O)N[C@@H](CCCNC(=N)N)C(=O)N[C@H](C(=O)NCC(=O)NCC(=O)N[C@@H](CC(=O)O)C(=O)N[C@@H](CCCCNC(=O)CCCCCCCCCCCCCCC(=O)O)C(N)=O)CSCC(=O)N[C@@H](Cc2ccc(O)cc2)C(=O)N(C)[C@@H](C)C(=O)N[C@@H](CC(=O)O)C(=O)N2CCC[C@H]2C(=O)N[C@@H](Cc2cnc[nH]2)C(=O)N[C@@H](CC(C)C)C(=O)N2C[C@H](O)C[C@H]2C(=O)N[C@@H](Cc2c[nH]c3ccccc23)C(=O)N[C@@H](CO)C(=O)N[C@@H](Cc2c[nH]c3ccccc23)C(=O)N1C` [Example 11126] ({CH2CO}-Y[NMeA]DPHL[Hyp]WSW[NMeNle][NMeNle]RCGGDK(C16 diacid)-NH2; thioether N-14), the figure is 10 to 99 nM; as for `CCCCCCCCCCCCCCCCNC(=O)[C@H](CC(=O)O)NC(=O)CCC(=O)NCCCOCCOCCOCCCNC(=O)CNC(=O)[C@@H]1CSCC(=O)N[C@@H](Cc2ccc(O)cc2)C(=O)N(C)[C@@H](C)C(=O)N[C@@H](CC(=O)O)C(=O)N2CCC[C@H]2C(=O)N[C@@H](Cc2cnc[nH]2)C(=O)N[C@@H](CC(C)C)C(=O)N2C[C@H](O)C[C@H]2C(=O)N[C@@H](Cc2c[nH]c3ccccc23)C(=O)N[C@@H](CO)C(=O)N[C@@H](Cc2c[nH]c3ccccc23)C(=O)N(C)[C@@H](CCCC)C(=O)N(C)[C@@H](CCCC)C(=O)N[C@@H](CCCNC(=N)N)C(=O)N1` [Example 11128] ({CH2CO}-Y[NMeA]DPHL[Hyp]WSW[NMeNle][NMeNle]RCG-X7; thioether N-14), 10 to 99 nM. As for `CCCC[C@H]1C(=O)N(C)[C@@H](CCCC)C(=O)N[C@@H](CC(C)C)C(=O)N[C@H](C(=O)NCCCCCCCCCCC(=O)N[C@@H](CC(=O)O)C(=O)O)CSCC(=O)N[C@@H](Cc2ccc(O)cc2)C(=O)N(C)[C@@H](C)C(=O)N[C@@H](CC(N)=O)C(=O)N2CCC[C@H]2C(=O)N[C@@H](Cc2cnc[nH]2)C(=O)N[C@@H](CCC(=O)O)C(=O)N2C[C@H](O)C[C@H]2C(=O)N[C@@H](Cc2c[nH]c3ccccc23)C(=O)N[C@@H](CCN)C(=O)N[C@@H](Cc2c[nH]c3ccccc23)C(=O)N1C` [Example 11129] ({CH2CO}-Y[NMeA]NPHE[Hyp]W[Dab]W[NMeNle][NMeNle]LC[Aun]D-OH; thioether N-14), the concentration for half-maximal inhibition (IC50) lay within 10 to 99 nM. As for `CCCC[C@H]1C(=O)N(C)[C@@H](CCCC)C(=O)N[C@@H](CC(C)C)C(=O)N[C@H](C(=O)NCCCCCCCCCCC(=O)N[C@@H](CCC(=O)O)C(=O)O)CSCC(=O)N[C@@H](Cc2ccc(O)cc2)C(=O)N(C)[C@@H](C)C(=O)N[C@@H](CC(N)=O)C(=O)N2CCC[C@H]2C(=O)N[C@@H](Cc2cnc[nH]2)C(=O)N[C@@H](CCC(=O)O)C(=O)N2C[C@H](O)C[C@H]2C(=O)N[C@@H](Cc2c[nH]c3ccccc23)C(=O)N[C@@H](CCN)C(=O)N[C@@H](Cc2c[nH]c3ccccc23)C(=O)N1C` [Example 11130] ({CH2CO}-Y[NMeA]NPHE[Hyp]W[Dab]W[NMeNle][NMeNle]LC[Aun]E-OH; thioether N-14), the figure is 10 to 99 nM; as for `CCCC[C@H]1C(=O)N(C)[C@@H](CCCC)C(=O)N[C@@H](CC(C)C)C(=O)N[C@H](C(=O)NCCCCCCCCCCC(=O)N[C@@H](CCC(=O)O)C(=O)O)CSCC(=O)N[C@@H](Cc2ccc(O)cc2)C(=O)N(C)[C@@H](C)C(=O)N[C@@H](CC(N)=O)C(=O)N2CCC[C@H]2C(=O)N[C@@H](CN)C(=O)N[C@@H](CCC(N)=O)C(=O)N2C[C@H](O)C[C@H]2C(=O)N[C@@H](Cc2c[nH]c3ccccc23)C(=O)N[C@@H](CO)C(=O)N[C@@H](Cc2cn(CC(=O)O)c3ccccc23)C(=O)N1C` [Example 11132] ({CH2CO}-Y[NMeA]NP[Dap]Q[Hyp]WS[Trp(1-CH2COOH)][NMeNle][NMeNle]LC[Aun]E-OH; thioether N-14), 10 to 99 nM.
